This is an account of results in patent US20120129870A1, “PIPERAZINYL DERIVATIVES USEFUL AS MODULATORS OF THE NEUROPEPTIDE Y2 RECEPTOR” (priority 2007, published 2012).

Where only a bound is given, the exact number is not on record here.

One experiment concerns the target T1, NPY Y2 receptor (Homo sapiens, UniProt P49146).
T1 sequence (P49146 1-381): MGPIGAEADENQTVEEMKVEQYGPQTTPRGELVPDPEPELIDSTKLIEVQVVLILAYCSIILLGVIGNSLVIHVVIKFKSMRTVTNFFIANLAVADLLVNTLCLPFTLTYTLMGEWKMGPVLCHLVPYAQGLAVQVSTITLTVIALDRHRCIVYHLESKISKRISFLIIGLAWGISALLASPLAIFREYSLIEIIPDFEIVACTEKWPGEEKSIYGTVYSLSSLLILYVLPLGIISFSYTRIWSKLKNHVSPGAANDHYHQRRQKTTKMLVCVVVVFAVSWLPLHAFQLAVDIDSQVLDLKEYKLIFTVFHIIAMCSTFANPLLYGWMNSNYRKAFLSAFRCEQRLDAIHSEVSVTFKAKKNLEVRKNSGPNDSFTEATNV
Kind of experiment: Neuropeptide Y2 radioligand binding assay ([125I]PYY, KAN-Ts membranes). More on the design: endogenous in cells; host or cells: KAN-Ts cells (membrane preparation). As to conditions: KAN-Ts membranes endogenously expressing Y2, [125I]PYY (80 pM), 1 h at rt. As for the experimental part: KAN-Ts endogenously expressing Y2 receptors were used for the radioligand binding assay. Cells were grown to confluence on 150 cm^2 tissue culture plates, washed with phosphate-buffered saline (PBS), and scraped into 50 mL tubes. After centrifugation, the supernatant was aspirated, and the pellets frozen and stored at −80° C. Thawed pellets were homogenized with a polytron tissue grinder for 15 sec in 20 mM Tris-HCl, 5 mM EDTA. The homogenate was centrifuged at 800×g for 5 min and the collected supernatant was recentrifuged at 25000×g for 25 min. The resulting pellet was resuspended in binding buffer (20 mM HEPES, 120 mM NaCl, 0.22 mM KH2PO4, 1.3 mM CaCl2, 0.8 mM MgSO4). Membranes were incubated with [^125I]PYY (80 pM) in the presence or absence of test compound for 1 h at rt. The reaction was stopped by filtration through GF/C filter plates pre-soaked in 0.3% polyethylenimine and subsequently washed with Tris 50 mM, 5 mM EDTA buffer. Plates were dried for 1 h in a 55° C. oven, scintillation fluid was added and the radioactivity was counted in a Packard TopCount. Specific binding to the NPY receptor subtypes was determined by radioactivity that was bound in the presence of […]. Each binding experiment was repeated three to eight times, each in duplicate. IC50 values (i.e. concentration of unlabelled peptide or antagonist required to compete for 50% of specific binding to the radioligand) were calculated using the GraphPad Prism software (GraphPad Software Inc., San Diego Calif.) with a fit to a sigmoidal dose response curve. Apparent K, values were calculated as Ki=IC50/(1+C/KD), where C is concentration of the radioligand.
With `N#Cc1cc(NC(=O)C2CCC2)ccc1N1CCN(C(c2ccccc2)c2ncco2)CC1` (centres unmarked) [Compound 95, Cyclobutanecarboxylic acid {3-cyano-4-[4-(oxazol-2-yl-phenyl-methyl)-piperazin-1-yl]-phenyl}-amide], the IC50 was 100 nM.

Regarding `CCC(CC)C(=O)Nc1ccc(N2CCN(C(c3ccccn3)c3ncco3)CC2)c(F)c1` (centres unmarked) [Compound 156, 2-Ethyl-N-{3-fluoro-4-[4-(oxazol-2-yl-pyridin-2-yl-methyl)-piperazin-1-yl]-phenyl}-butyramide], the IC50 stood at 790 nM.

`Cn1ccnc1Nc1ccc(N2CCN(C(c3ccccc3)c3ncco3)CC2)c(F)c1` (centres unmarked) [Compound 58, {3-Fluoro-4-[4-(oxazol-2-yl-phenyl-methyl)-piperazin-1-yl]-phenyl}-(1-methyl-1H-imidazol-2-yl)-amine] returned an IC50 greater than 10000 nM.

Regarding `Cc1cc(NC(=O)C(C)C)ccc1N1CCN(C(c2ccccc2)c2ncco2)CC1` (centres unmarked) [Compound 74, N-{3-Methyl-4-[4-(oxazol-2-yl-phenyl-methyl)-piperazin-1-yl]-phenyl}-isobutyramide], the IC50 was 2600 nM.

Regarding `Cc1nc(C(c2ccc(OC(F)(F)F)cc2)N2CCN(c3ccc(NC(=O)C4CCOC4)cc3F)CC2)no1` (centres unmarked) [Compound 280], the IC50 worked out at 430 nM.

`N#Cc1cc(NC(=O)C2CC2)ccc1N1CCN(C(c2ccccc2)c2ncco2)CC1` (centres unmarked) [Compound 101, Cyclopropanecarboxylic acid {3-cyano-4-[4-(oxazol-2-yl-phenyl-methyl)-piperazin-1-yl]-phenyl}-amide] had an IC50 of 170 nM.

`CC(CC(F)(F)F)C(=O)Nc1ccc(N2CCN(C(c3ccccc3)c3ncco3)CC2)c(F)c1` (centres unmarked) [Compound 111, 4,4,4-Trifluoro-N-{3-fluoro-4-[4-(oxazol-2-yl-phenyl-methyl)-piperazin-1-yl]-phenyl}-2-methyl-butyramide]: the IC50 is 360 nM.

The compound `CCC(CC)C(=O)Nc1ccc(N2CCN(C(c3ncco3)C3CC3)CC2)c(F)c1` (centres unmarked) [Compound 66, N-{4-[4-(Cyclopropyl-oxazol-2-yl-methyl)-piperazin-1-yl]-3-fluoro-phenyl}-2-ethyl-butyramide] displayed an IC50 of 1500 nM.

The compound `Cc1cccc(Nc2ccc(N3CCN(C(c4ccccc4)c4ncco4)CC3)c(F)c2)n1` (centres unmarked) [Compound 62, {3-Fluoro-4-[4-(oxazol-2-yl-phenyl-methyl)-piperazin-1-yl]-phenyl}-(6-methyl-pyridin-2-yl)-amine] came in with an IC50 of 4700 nM.

Turning to `O=C(Nc1ccc(N2CCN(C(c3ccccc3)c3ncco3)CC2)c(F)c1)C1CCC(F)(F)CC1` (centres unmarked) [Compound 108, 4,4-Difluoro-cyclohexanecarboxylic acid {3-fluoro-4-[4-(oxazol-2-yl-phenyl-methyl)-piperazin-1-yl]-phenyl}-amide], the IC50 was greater than 10000 nM.

Compound `CCC(CC)C(=O)Nc1ccc(N2CCN(C(c3ccccc3)C3CCCC3)CC2)c(F)c1` (centres unmarked) [Compound 83, N-{4-[4-(Cyclopentyl-phenyl-methyl)-piperazin-1-yl]-3-fluoro-phenyl}-2-ethyl-butyramide] displayed an IC50 of 200 nM.

Regarding `O=C(Nc1ccc(N2CCN(C(c3ccccc3)c3ncco3)CC2)c(F)c1)C1CCCC1` (single isomer, unassigned) [Compound 126, Cyclopentanecarboxylic acid {3-fluoro-4-[4-(oxazol-2-yl-phenyl-methyl)-piperazin-1-yl]-phenyl}-amide], the IC50 worked out at 340 nM.

In turn, `CCC(CC)C(=O)Nc1ccc(N2CCN(C(c3ccccc3)C3CC3)CC2)c(F)c1` (centres unmarked) [Compound 53, N-{4-[4-(Cyclopropyl-phenyl-methyl)-piperazin-1-yl]-3-fluoro-phenyl}-2-ethyl-butyramide] displayed an IC50 of 78 nM.

Turning to `Cc1cc(NC(=O)C2CC2)ccc1N1CCN(C(c2ccccc2)c2ncco2)CC1` (centres unmarked) [Compound 81, Cyclopropanecarboxylic acid {3-methyl-4-[4-(oxazol-2-yl-phenyl-methyl)-piperazin-1-yl]-phenyl}amide], the 50% inhibitory concentration (IC50) came to 1700 nM.

`CCC(CC)C(=O)Nc1ccc(N2CCN(C(c3ccc(OC(F)(F)F)cc3)c3noc(C)n3)CC2)c(F)c1` (centres unmarked) [Compound 281]: the IC50 came to 65 nM.

For the compound `CCC(CC)C(=O)Nc1ccc(N2CCN(C(c3ccccn3)c3ncco3)CC2)c(C#N)c1` (centres unmarked) [Compound 155, N-{3-Cyano-4-[4-(oxazol-2-yl-pyridin-2-yl-methyl)-piperazin-1-yl]-phenyl}-2-ethyl-butyramide], the IC50 turned out to be 150 nM.

With `CCC(CC)C(=O)Nc1ccc(N2CCN(C(c3ccccn3)c3ccccn3)CC2)c(F)c1` [Compound 55, N-{4-[4-(Di-pyridin-2-yl-methyl)-piperazin-1-yl]-3-fluoro-phenyl}-2-ethyl-butyramide], the IC50 was 54 nM.

Take `CCC(CC)C(=O)Nc1ccc(N2CCN(C(c3ccc(F)cc3)c3ccc(F)cc3)CC2)c(F)c1` [Compound 12, N-(4-{4-[Bis-(4-fluoro-phenyl)-methyl]-piperazin-1-yl}-3-fluoro-phenyl)-2-ethyl-butyramide]: the IC50 is 330 nM.

For `CC[C@@H](C)C(=O)Nc1ccc(N2CCN(C(c3ccccc3)c3ncco3)CC2)c(C#N)c1` (stereo in doubt) [Compound 93, N-{3-Cyano-4-[4-(oxazol-2-yl-phenyl-methyl)-piperazin-1-yl]-phenyl}-2-methyl-butyramide], the IC50 was determined as 32 nM.

On to `Cc1ccnc(Nc2ccc(N3CCN(C(c4ccccc4)c4ncco4)CC3)c(F)c2)n1` (centres unmarked) [Compound 61, {3-Fluoro-4-[4-(oxazol-2-yl-phenyl-methyl)-piperazin-1-yl]-phenyl}-(4-methyl-pyrimidin-2-yl)-amine], for which the IC50 was greater than 10000 nM.

The compound `O=C(Nc1ccc(N2CCN(C(c3ccccc3)c3ncco3)CC2)c(F)c1)[C@@H]1CCOC1` (stereo in doubt) [Compound 92, Tetrahydro-furan-3-carboxylic acid {3-fluoro-4-[4-(oxazol-2-yl-phenyl-methyl)-piperazin-1-yl]-phenyl}-amide] came in with an IC50 of 270 nM.

For the compound `CC(C)C(=O)Nc1ccc(N2CCN(C(c3ccccc3)c3ncco3)CC2)c(C#N)c1` (centres unmarked) [Compound 87, N-{3-Cyano-4-[4-(oxazol-2-yl-phenyl-methyl)-piperazin-1-yl]-phenyl}-isobutyramide], the IC50 is 54 nM.

For `CCC(CC)C(=O)Nc1ccc(N2CCN(C(c3ncco3)C3CCC3)CC2)c(F)c1` (centres unmarked) [Compound 116, N-{4-[4-(Cyclobutyl-oxazol-2-yl-methyl)-piperazin-1-yl]-3-fluoro-phenyl}-2-ethyl-butyramide], the IC50 turned out to be 410 nM.

As for `O=C(Nc1ccc(N2CCN(C(c3ccccc3)c3ccccc3)CC2)c(F)c1)[C@H]1CCOC1` (stereo in doubt) [Compound 14, Tetrahydro-furan-3-carboxylic acid [4-(4-benzhydryl-piperazin-1-yl)-3-fluoro-phenyl]-amide], the IC50 was determined as 80 nM.

`Cc1cccnc1Nc1ccc(N2CCN(C(c3ccccc3)c3ncco3)CC2)c(F)c1` (centres unmarked) [Compound 57, {3-Fluoro-4-[4-(oxazol-2-yl-phenyl-methyl)-piperazin-1-yl]-phenyl}-(3-methyl-pyridin-2-yl)-amine] displayed an IC50 greater than 10000 nM.

For `CCC(CC)C(=O)Nc1ccc(N2CCN(C(c3ncco3)C3CCCCC3)CC2)c(F)c1` (centres unmarked) [Compound 122, N-{4-[4-(Cyclohexyl-oxazol-2-yl-methyl)-piperazin-1-yl]-3-fluoro-phenyl}-2-ethyl-butyramide], the IC50 is 430 nM.

The experiment is the same for the next values; noted with them: apparent Ki=IC50/(1+C/KD).
As to `Cc1noc(C)c1C(=O)Nc1ccc(N2CCN(C(c3ccc(F)cc3)c3ccc(F)cc3)CC2)c(C#N)c1` [Compound 309, 3,5-Dimethyl-isoxazole-4-carboxylic acid (4-{4-[bis-(4-fluoro-phenyl)methyl]-piperazin-1-yl}-3-cyano-phenyl)-amide], the Ki stood at 740 nM.

As for `Cc1noc(C)c1C(=O)Nc1ccc(N2CCN(C(c3ccccc3)c3ccc(Cl)cc3)CC2)c(C#N)c1` (centres unmarked) [Compound 312, 3,5-Dimethyl-isoxazole-4-carboxylic acid (4-{4-[(4-chloro-phenyl)-phenyl-methyl]-piperazin-1-yl}-3-cyano-phenyl)-amide], the Ki was determined as 84 nM.

Consider `CN(C)CC(=O)Nc1ccc(N2CCN(C(c3ccccc3)c3ccccc3)CC2)c(C#N)c1` [Compound 300, N-[4-(4-Benzhydryl-piperazin-1-yl)-3-cyano-phenyl]-2-dimethylamino-acetamide], for which the Ki came to 250 nM.
